Five compounds from US20250243233A1, “BIOBASED SURFACTANTS” (ECOLE POLYTECHNIQUE FEDERALE DE LAUSANNE (EPFL), priority 2022, published 2025) can be followed below.

Holding throughout (assay type): physicochemical
Data set [1] is described as follows: Interfacial tension measurements, water/oil pendant drop test (CMC from interfacial tension-concentration graph). The method, then: To test the amphiphilic properties of each molecule, we measured the water/oil interfacial tension using pendant drop test. In a typical test, we inject the organic solution with surfactants slowly into the water phase with a bent needle with 1 mm diameter. The interfacial tension is calculated by the force balance with the buoyancy force. The critical micelle concentration (CMC) can be obtained by checking the critical point of interfacial tension-concentration graph. […] The CMC of MAX10 and MAX8 are around 2.5 mg/mL.

Data set [2] in a line: Emulsion stability measurements (water/cyclohexane emulsions, bright-field microscope). The settings on record: water/oil emulsion (67% water and 33% cyclohexane) containing 1% surfactant, FIG. 2. The method, then: The emulsions were prepared by mixing 1 ml of water (with 1 mg/ml of Acian blue dye) and 2 ml cyclohexane containing 3,5-O-dodecylidene-xylose or 2-((dodecyloxy)methyl) tetrahydrofuran-3,4-diol) at a concentration of 0.1% and then mixed by vortex for 30 s.
Emulsions were characterized using a bright-field microscope (Leitz Ergolux) during the storage after preparation. […] Besides, a water/oil emulsion (67% water and 33% cyclohexane) containing 1% 3,5-O-dodecylidene-xylose was kept for about 1 year to observe its possible destablization.

The nature of data set [3]: Accelerated aqueous decomposition test (boiling in water, HPLC). To be noted: FIG. 16. The method, then:
HPLC analyses for the accelerated aqueous decomposition of MAXn were performed using a HPX-87H Column (300 mm×7.8 mm; column temperature=60° C.) using pH 2 water as eluent (flow rate=0.6 ml·min^−1, Vinj=20 μL) with 1260 Refractive Index Detector (RID) (G1362A)
To gain insight into the degradation products of 1,2-O-dodecylidene-xylose (MAX12) in water, an accelerating aging test was performed by boiling it in water. Samples were taken at various time points and analyzed by HPLC (pH2 aqueous-phase chromatography, HPX-87H Column (300 mm×7.8 mm; 125-0140), 1260 Refractive Index Detector (RID) (G1362A), flow rate=0.6 ml·min^−1, Vinj=20 μL, column temperature=60° C.). […] And to our knowledge, fatty aldehydes can be oxidized into fatty acids catalyzed by the aldehyde dehydrogenase enzyme. Xylose and fatty acids are readily biodegradable.

Data set [4] is described as follows: quick emulsion test in ethyl acetate and water. To be noted: non-miscible system of ethyl acetate and water, mixture neutralized until pH 7, FIG. 1a. The source says:
The mixture was neutralized until pH 7, and dissolved in a non-miscible system of ethyl acetate and water to do a quick emulsion test.

[5] abbreviates: water/oil interfacial tension, FIG. 7.

Regarding 3,5-O-decylidene-xylose [MAX10], the “critical micelle concentration (CMC)” value in data set [1] (setting [5]) was “around 2.5 mg/mL”.

Take 3,5-O-dodecylidene-xylose [MAX12]: the “state of emulsion after about 1 year storage” value in data set [2] is listed as “most of the volume maintained the form of emulsion”. Further, in data set [3], the “time to cleavage into xylose and fatty aldehyde” value worked out at 2 days. The “critical micelle concentration (CMC)” value in data set [1] (setting [5]) came out at 0.35 mg/mL.

Consider 3,5-O-octylidene-xylose [MAX8], for which, in data set [1] (setting [5]), the “critical micelle concentration (CMC)” value is reported as “around 2.5 mg/mL”.

Take `CCCCCCCCO` [1-octanol]: the “phase separation / formation of emulsion” value in data set [4] is given as “phase separated”.

As to `CCCCCCCCCCCCOCC1OCC(O)C1O` (centres unmarked) [2-((dodecyloxy)methyl)tetrahydrofuran-3,4-diol], the “interfacial tension plateau value” in data set [1] (cyclohexane/water) is recorded as “about 1.0 mN/m”. In addition, the “critical micelle concentration (CMC)” value in data set [1] (cyclohexane/water, FIG. 8) is listed as “around 0.5 g/L”.
